According to US20100292316A1, “IMPROVED THERAPEUTIC METHODS AND COMPOSITIONS COMPRISING CHROMAN RING COMPOUNDS” (Research Development Foundation, priority 2007, published 2010):

Experiments:
GSK3β = test: Western blot of phospho-GSK3β (Ser 9); assay type: cell-based, human; conditions: LNCaP and PC-3-GFP cells, 40 μM α-TEA
Source text: Previous studies have shown that α-TEA is an effective inducer of apoptosis in human prostate cancer cells (Anderson et al., 2004). Dose- and time-dependent pro-apoptotic effects of α-TEA in prostate cancer cells are mediated by Fas/FADD/caspase-8/tBid and Fas/Daxx/Ask1/JNK1/2/Bax, leading to activation of caspases-9 and -3. Thus, the Akt inhibiting activity of α-TEA was investigated in prostate cancer cells. Since phosphorylation of Akt at Ser 473 is required for its full activation (Cheng et al., 2005), we examined the phosphorylation status of Akt using an antibody that specifically recognizes Akt phosphorylated at Ser 473 in all three Akt isoforms (Upstate Cell Signaling Solutions (Charlottesville, Va.)). α-TEA decreased the levels of the phosphorylated forms of Akt. […] As verification that the decreases in phosphorylation status of Akt correlated with decreased kinase activity, the phosphorylation status of GSK3β, a downstream Akt target, was evaluated following α-TEA treatments. […] GAPDH levels were assayed with each immunoblot assay as a protein loading control.
Akt antibodies for the foregoing studies (Akt, Akt1, Akt2, Akt and phospho-Akt) as well as GSK3β and phospho-GSK3β antibodies were purchased from Cell Signaling Technology (Beverly, Mass.).

TSP-1 = TSP-1 mRNA (RT-PCR) and protein (Western blot) levels in human breast cancer cells; assay type: cell-based; conditions: 40 μM α-TEA; for peak TSP-1 mRNA levels, fold of VEH control: 6 h
Method: (§1) Whole-cell protein extracts were prepared as described previously (Yu et al., 1999), and 50 μg of protein was loaded per lane, separated using SDS-PAGE on a 10-15% gel under reducing conditions, and electroblotted onto a nitrocellulose membrane ([…] Optitran BA-S-supported nitrocellulose; Schleicher and Schuell, Keene, N.H.). Equal loading was verified using GAPDH antibody. Primary rabbit antibodies with specificity for PARP and primary goat antibody with specificity for Arg were purchased from Santa Cruz Biotechnology (Santa Cruz, Calif.). Horseradish peroxidase conjugated goat anti-rabbit or horseradish goat anti-mouse secondary antibody was purchased from Jackson Immunoresearch Laboratory (West Grove, Pa.). Horseradish peroxidase-conjugated donkey anti-goat serum was purchased from Santa Cruz Biotechnology. Immune complexes were visualized using enhanced chemiluminescence detection (Pierce Chemical Co., Rockford, Ill.). Fold differences in level of chemiluminescence were determined by densitometric analyses.
Total RNA was isolated from cells using RNeasy Protect Mini kit (Qiagen, Valencia, Calif.) according to manufacturer's instruction. Reverse transcription was performed as described above except using 15 μg of total RNA as template. Polymerase chain reaction (PCR) with Arg primers 30 cycles in volumes of 50 μl according to the manufacturer's protocol (Taq PCR Master Mix Kit; Qiagen, Valencia, Calif.). Primers used in the analyses were: Arg, forward (5′-CAGTGATGCCTCCACCTCAA-3′; SEQ ID NO:2) and reverse (5′-TTTCCCTCTCCCCTCAGAAAT-3′; SEQ ID NO:3) and for β-actin (loading control), forward (5′-GGCGGCACCACCATGTACCCT-3′; SEQ ID NO:4) and reverse (5′-AGGGGCCGGACTCGTCATACT-3′; SEQ ID NO:5) (Invitrogen, Carlsbad, Calif.). The amplification reaction involved denaturation at 95° C. for 30 seconds, annealing at 52° C. for 30 seconds, and extension at 72° C. for 30 seconds (for Arg) using a PTC-225 thermal cycler (MJ Research, San Francisco, Calif.). The PCR products were resolved on 1% agarose gels and visualized by ethidium bromide staining.
Western blot analyses with a primary mouse antibody (Calbiochem (San Diego, Calif.)) was used to determine protein levels in treated versus untreated MDA-MB-435 and MCF-7 human breast cancer cells (FIG. 2B). […] 66c1-4-GFP cells are a mouse mammary tumor cell line originally derived from a spontaneous mammary tumor in a Balb/cfC3H mouse and later isolated as a 6-thioguanine-resistant clone. The cells were subsequently stably transfected with the enhanced GFP (Lawson et al., 2003). […] In MCF-7 cells, peak TSP-1 mRNA levels at 6 h were 1.3-fold of the VEH control and peak TSP-1 protein levels at 24 h were 2.4-fold of the VEH control. […]

PARP = PARP cleavage (p84) by Western blot, densitometry; assay type: cell-based, human; conditions: LNCaP, 40 μM α-TEA 15 h
Method: as §1
Primary mouse antibody specific for p73 was purchased from IMGENEX (San Diego, Calif.). Primary mouse antibody specific for caspase 8 was purchased from Cell Signaling Technology (Beverly, Mass.). Horseradish peroxidase conjugated goat anti-rabbit or goat anti-mouse secondary antibodies were purchased from Jackson Immunoresearch Laboratory (West Grove, Pa.). Horseradish peroxidase-conjugated donkey […] serum was purchased from Santa Cruz Biotechnology. Immune complexes were visualized using enhanced chemiluminescence detection (Pierce Chemical Co., Rockford, Ill.). Fold differences in level of chemiluminescence were determined by densitometric analyses.

## Cc1c(C)c2c(c(C)c1OCC(=O)O)CC[C@@](C)(CCC[C@H](C)CCC[C@H](C)CCCC(C)C)O2 [α-TEA]
GSK3β
  phosphorylation status of pGSK3β (at Ser 9): Decreases
TSP-1; MCF-7 cells
  peak TSP-1 mRNA levels, fold of VEH control: 1.3 fold
TSP-1; MCF-7 cells, 24 h
  peak TSP-1 protein levels, fold of VEH control: 2.4 fold
TSP-1; MDA-MB-435 cells
  peak TSP-1 mRNA levels, fold of VEH control: 1.8 fold
TSP-1; MDA-MB-435 cells, 15 h
  peak TSP-1 protein levels, fold of VEH control: 4.7 fold
PARP
  PARP cleavage in comparison to empty vector control, cells overexpressing Flag-tagged wild type FOXO1: 160%
  PARP cleavage in comparison to empty vector control, cells overexpressing constitutively active Flag-FOXO1 AAA: 230%
